From ChEMBL document CHEMBL4028801, “A multifactorial approach to hepatobiliary transporter assessment enables improved therapeutic compound development” (Toxicol Sci, 2013)
Counter-ions that a name gives are not always drawn.

Tests used:
[1] = biological target: ATP-binding cassette sub-family C member 2 (Homo sapiens, UniProt Q92887); assay: Inhibition of human MRP2 overexpressed in Sf9 cell membrane vesicles assessed as uptake of [3H]-estradiol-17beta-D-glucuronide in presence of ATP and GSH measured after 20 mins by membrane vesicle transport assay
Sequence of ATP-binding cassette sub-family C member 2 (Q92887 whole entry): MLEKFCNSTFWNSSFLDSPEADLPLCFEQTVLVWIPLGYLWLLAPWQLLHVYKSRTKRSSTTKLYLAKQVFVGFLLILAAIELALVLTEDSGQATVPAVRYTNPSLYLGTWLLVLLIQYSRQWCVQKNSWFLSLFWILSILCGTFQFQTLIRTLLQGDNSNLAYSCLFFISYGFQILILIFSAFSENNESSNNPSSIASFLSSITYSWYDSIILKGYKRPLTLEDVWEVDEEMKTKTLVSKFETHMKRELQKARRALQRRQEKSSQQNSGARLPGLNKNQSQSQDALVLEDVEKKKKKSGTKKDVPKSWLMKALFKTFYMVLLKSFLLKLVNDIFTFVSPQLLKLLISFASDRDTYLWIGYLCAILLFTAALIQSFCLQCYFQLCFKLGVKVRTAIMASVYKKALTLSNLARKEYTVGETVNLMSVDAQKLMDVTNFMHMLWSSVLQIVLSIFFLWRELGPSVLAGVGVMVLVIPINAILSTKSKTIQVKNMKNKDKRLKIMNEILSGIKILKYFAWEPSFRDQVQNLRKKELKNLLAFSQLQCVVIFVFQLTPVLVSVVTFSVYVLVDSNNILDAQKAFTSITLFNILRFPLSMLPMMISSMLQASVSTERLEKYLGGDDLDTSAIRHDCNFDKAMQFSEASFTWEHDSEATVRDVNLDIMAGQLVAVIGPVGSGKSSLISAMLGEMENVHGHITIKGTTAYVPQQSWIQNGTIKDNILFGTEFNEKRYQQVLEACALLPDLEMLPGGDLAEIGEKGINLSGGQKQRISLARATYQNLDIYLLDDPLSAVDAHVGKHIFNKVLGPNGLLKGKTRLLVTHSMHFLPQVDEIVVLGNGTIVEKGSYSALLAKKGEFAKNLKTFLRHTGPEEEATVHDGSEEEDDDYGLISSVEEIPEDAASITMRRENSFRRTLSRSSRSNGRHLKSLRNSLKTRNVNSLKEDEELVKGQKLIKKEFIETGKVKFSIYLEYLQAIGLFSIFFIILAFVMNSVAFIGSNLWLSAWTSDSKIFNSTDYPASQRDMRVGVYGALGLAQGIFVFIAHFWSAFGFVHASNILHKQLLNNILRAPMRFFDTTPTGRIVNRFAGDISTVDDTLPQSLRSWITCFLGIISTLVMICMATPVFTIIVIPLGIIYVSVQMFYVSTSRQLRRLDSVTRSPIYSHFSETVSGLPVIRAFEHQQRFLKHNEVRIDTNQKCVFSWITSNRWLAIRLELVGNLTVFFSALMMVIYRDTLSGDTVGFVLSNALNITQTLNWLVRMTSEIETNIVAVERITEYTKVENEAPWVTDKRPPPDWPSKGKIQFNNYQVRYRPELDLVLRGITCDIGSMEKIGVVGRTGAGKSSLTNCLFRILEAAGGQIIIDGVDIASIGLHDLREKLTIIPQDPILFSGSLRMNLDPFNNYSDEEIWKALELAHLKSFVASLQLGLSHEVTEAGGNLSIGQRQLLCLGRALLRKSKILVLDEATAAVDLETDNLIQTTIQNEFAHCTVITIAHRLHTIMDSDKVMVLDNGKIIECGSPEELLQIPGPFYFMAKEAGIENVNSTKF

[2] = biological target: T1, ATP-binding cassette sub-family C member 4 (Homo sapiens, UniProt O15439); assay: Inhibition of human MRP4 overexpressed in Sf9 cell membrane vesicles assessed as uptake of [3H]-estradiol-17beta-D-glucuronide in presence of ATP and GSH measured after 20 mins by membrane vesicle transport assay; assay type: ADME, cell-based
T1 sequence (O15439 whole entry): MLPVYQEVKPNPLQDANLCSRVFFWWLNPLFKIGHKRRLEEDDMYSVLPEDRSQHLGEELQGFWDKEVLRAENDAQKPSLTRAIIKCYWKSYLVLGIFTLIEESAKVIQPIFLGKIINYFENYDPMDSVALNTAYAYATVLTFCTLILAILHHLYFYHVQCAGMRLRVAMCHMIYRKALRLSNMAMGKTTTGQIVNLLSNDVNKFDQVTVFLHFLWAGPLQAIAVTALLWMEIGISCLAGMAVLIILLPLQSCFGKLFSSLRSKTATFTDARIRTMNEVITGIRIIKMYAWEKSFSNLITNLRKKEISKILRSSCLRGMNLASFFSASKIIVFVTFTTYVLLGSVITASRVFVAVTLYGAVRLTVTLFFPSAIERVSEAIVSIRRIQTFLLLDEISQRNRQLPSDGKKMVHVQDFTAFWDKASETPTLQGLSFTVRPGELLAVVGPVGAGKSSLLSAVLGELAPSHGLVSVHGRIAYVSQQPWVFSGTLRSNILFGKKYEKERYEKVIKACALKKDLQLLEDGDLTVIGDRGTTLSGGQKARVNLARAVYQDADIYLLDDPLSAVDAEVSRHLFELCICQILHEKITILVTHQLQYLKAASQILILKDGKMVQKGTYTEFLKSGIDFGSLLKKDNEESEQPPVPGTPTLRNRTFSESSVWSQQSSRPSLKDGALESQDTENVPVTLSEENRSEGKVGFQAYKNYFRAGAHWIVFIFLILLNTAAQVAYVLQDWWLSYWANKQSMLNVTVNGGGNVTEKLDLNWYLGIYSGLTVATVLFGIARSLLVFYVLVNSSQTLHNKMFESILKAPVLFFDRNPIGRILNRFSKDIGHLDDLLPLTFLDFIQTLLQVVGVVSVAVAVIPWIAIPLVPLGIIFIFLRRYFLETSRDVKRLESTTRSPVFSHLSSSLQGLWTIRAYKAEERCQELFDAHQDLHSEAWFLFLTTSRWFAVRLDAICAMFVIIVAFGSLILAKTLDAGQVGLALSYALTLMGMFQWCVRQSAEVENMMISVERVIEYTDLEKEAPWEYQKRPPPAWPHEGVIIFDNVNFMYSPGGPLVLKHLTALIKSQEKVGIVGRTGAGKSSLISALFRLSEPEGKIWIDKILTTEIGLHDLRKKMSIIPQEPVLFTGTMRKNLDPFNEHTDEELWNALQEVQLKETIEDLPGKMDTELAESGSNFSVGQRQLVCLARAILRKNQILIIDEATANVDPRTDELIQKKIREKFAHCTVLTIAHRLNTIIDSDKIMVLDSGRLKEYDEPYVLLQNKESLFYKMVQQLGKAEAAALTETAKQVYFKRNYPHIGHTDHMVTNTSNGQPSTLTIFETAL

Bile salt export pump = Bile salt export pump (Homo sapiens, UniProt O95342); assay: Inhibition of human BSEP overexpressed in Sf9 cell membrane vesicles assessed as uptake of [3H]-taurocholate in presence of ATP measured after 15 to 20 mins by membrane vesicle transport assay; assay type: ADME, cell-based
Sequence of Bile salt export pump (O95342 whole entry): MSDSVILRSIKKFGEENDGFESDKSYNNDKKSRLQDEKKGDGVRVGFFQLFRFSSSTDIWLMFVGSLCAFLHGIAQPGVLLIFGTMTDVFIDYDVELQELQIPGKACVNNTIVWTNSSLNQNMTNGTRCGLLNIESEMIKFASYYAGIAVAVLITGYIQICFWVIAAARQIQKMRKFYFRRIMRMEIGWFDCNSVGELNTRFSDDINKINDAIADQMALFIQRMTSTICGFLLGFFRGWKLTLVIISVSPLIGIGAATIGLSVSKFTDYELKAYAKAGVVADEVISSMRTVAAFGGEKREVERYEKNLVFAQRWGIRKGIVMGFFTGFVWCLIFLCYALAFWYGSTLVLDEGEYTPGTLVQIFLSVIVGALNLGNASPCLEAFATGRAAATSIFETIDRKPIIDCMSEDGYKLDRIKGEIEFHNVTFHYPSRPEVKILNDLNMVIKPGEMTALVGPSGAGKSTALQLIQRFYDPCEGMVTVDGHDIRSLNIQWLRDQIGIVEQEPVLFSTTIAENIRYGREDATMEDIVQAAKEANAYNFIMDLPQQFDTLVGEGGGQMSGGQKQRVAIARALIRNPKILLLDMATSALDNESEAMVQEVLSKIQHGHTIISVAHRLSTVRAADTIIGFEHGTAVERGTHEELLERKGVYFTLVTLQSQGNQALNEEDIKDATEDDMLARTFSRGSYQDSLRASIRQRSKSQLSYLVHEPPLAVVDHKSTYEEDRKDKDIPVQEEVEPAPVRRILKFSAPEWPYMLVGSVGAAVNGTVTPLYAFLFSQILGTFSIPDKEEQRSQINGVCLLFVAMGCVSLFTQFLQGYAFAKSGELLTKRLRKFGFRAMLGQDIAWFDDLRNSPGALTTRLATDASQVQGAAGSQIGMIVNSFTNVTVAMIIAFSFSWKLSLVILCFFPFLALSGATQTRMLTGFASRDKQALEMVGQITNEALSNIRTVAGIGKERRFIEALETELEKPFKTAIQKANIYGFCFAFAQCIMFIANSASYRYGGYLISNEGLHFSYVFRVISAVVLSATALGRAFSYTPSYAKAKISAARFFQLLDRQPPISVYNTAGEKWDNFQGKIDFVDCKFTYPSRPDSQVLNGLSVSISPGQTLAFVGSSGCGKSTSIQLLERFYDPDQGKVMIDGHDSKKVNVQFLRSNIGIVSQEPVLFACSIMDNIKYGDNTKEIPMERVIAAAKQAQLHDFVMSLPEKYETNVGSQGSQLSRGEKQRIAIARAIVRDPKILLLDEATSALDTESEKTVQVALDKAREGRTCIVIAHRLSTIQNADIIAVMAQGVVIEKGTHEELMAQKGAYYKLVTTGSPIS

[3] = biological target: ATP-binding cassette sub-family C member 3 (Homo sapiens, UniProt O15438); assay: Inhibition of human MRP3 overexpressed in Sf9 insect cell membrane vesicles assessed as uptake of [3H]-estradiol-17beta-D-glucuronide in presence of ATP and GSH measured after 10 mins by membrane vesicle transport assay; assay type: ADME, cell-based
Sequence of ATP-binding cassette sub-family C member 3 (O15438 whole entry): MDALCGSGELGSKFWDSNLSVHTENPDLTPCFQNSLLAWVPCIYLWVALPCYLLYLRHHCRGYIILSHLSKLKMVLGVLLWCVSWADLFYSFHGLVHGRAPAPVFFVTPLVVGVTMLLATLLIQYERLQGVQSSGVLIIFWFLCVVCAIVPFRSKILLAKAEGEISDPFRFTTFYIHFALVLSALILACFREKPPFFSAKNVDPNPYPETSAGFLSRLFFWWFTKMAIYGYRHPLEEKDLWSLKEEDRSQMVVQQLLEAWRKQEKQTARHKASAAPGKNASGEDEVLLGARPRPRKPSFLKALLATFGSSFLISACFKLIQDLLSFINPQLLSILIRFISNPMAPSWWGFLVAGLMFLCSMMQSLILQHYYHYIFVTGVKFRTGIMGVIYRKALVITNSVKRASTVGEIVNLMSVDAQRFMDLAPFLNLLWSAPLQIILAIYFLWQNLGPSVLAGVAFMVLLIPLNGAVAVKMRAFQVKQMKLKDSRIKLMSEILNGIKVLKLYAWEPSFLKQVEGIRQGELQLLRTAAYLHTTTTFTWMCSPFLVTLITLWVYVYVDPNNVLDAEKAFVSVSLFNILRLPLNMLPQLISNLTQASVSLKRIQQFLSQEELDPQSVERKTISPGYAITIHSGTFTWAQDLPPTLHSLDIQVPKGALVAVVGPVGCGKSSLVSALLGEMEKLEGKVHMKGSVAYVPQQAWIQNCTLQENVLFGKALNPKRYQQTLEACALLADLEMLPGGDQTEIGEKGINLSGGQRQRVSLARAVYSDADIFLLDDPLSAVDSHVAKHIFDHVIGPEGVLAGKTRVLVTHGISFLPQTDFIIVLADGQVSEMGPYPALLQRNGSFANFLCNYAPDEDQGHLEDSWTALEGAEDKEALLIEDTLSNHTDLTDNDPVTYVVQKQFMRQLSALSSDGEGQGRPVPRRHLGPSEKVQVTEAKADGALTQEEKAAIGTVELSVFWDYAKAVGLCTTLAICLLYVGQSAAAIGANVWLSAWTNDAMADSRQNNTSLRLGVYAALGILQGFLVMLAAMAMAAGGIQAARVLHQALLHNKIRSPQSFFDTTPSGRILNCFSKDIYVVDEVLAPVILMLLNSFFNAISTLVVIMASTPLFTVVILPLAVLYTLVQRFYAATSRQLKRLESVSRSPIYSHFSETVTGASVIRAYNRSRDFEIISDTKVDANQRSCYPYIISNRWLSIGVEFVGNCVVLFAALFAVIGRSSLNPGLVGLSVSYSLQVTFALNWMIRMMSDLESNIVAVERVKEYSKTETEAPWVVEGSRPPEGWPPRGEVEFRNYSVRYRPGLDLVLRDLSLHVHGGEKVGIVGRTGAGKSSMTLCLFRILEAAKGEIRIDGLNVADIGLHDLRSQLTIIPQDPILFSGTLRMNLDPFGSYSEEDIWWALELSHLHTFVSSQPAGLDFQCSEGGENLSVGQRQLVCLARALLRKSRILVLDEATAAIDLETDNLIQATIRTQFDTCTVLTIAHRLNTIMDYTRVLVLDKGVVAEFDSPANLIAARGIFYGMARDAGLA

| Compound | IC50 [1] [µM] | IC50 [2] [µM] | IC50 (Bile salt export pump) [µM] | IC50 [3] [µM] |
| --- | --- | --- | --- | --- |
| O=c1[nH]c(=O)n([C@H]2CCCO2)cc1F | > 133 | > 133 | > 133 | > 133 |
| C=C1CC[C@@]2(O)[C@H]3Cc4ccc(O)c5c4[C@@]2(CCN3CC2CC2)[C@H]1O5 | > 133 | > 133 | > 133 | > 133 |
| CNNCc1ccc(C(=O)NC(C)C)cc1 [PROCARBAZINE HYDROCHLORIDE] | > 133 | > 133 | > 133 | > 133 |
| CC(CN1c2ccccc2Sc2ccccc21)N(C)C (configuration not stated) [PROMETHAZINE] | > 133 | > 133 | > 133 | > 133 |
| N[C@@H](Cc1ccc(N(CCCl)CCCl)cc1)C(=O)O | > 133 | > 133 | > 133 | > 133 |
| COc1ccc2cc([C@H](C)C(=O)O)ccc2c1 [NAPROXEN] | > 133 | > 133 | > 133 | > 133 |
| Fc1ccc([C@@H]2CCNC[C@H]2COc2ccc3c(c2)OCO3)cc1 [PAROXETINE HYDROCHLORIDE] | > 133 | > 133 | > 133 | > 133 |
| CO/N=C(\C(=O)N[C@@H]1C(=O)N2C(C(=O)O)=C(CSc3nc(=O)c(=O)[nH]n3C)CS[C@H]12)c1csc(N)n1 | > 133 | 35.6 | > 133 | > 133 |
| CC1=C(/C=C/C(C)=C/C=C/C(C)=C/C(=O)O)C(C)(C)CCC1 [TRETINOIN] | > 133 | > 133 | > 133 | > 133 |
| c1ccc(C2(c3ccccc3)CC2C2=NCCN2)cc1 (configuration not stated) [CIFENLINE] | > 133 | > 133 | > 133 | > 133 |
| O=C(O)CCCc1ccc(N(CCCl)CCCl)cc1 [CHLORAMBUCIL] | > 133 | > 133 | > 133 | > 133 |
| Clc1ccc2nsnc2c1NC1=NCCN1 [TIZANIDINE] | > 133 | > 133 | > 133 | > 133 |
| Cc1ccc(-c2ncc(Cl)cc2-c2ccc(S(C)(=O)=O)cc2)cn1 [ETORICOXIB] | > 133 | 53 | 53.2 | > 133 |
| O=P(O)(O)C(O)(Cn1ccnc1)P(=O)(O)O [ZOLEDRONIC ACID] | > 133 | > 133 | > 133 | > 133 |
| CC(c1cc2ccccc2s1)N(O)C(N)=O (configuration not stated) [ZILEUTON] | > 133 | > 133 | > 133 | > 133 |
| CN(C)CCc1c[nH]c2ccc(Cn3cncn3)cc12 [RIZATRIPTAN BENZOATE] | > 133 | > 133 | > 133 | > 133 |
| Cc1cc2c(s1)Nc1ccccc1N=C2N1CCN(C)CC1 [OLANZAPINE] | > 133 | > 133 | > 133 | > 133 |
| CS(=O)(=O)N1CCN(Cc2cc3nc(-c4cccc5[nH]ncc45)nc(N4CCOCC4)c3s2)CC1 | > 133 | 2.7 | 15.2 | > 133 |
| SPIRAMYCIN | > 133 | > 133 | > 133 | > 133 |
| O=c1[nH]cc(F)c(=O)[nH]1 [FLUOROURACIL] | > 133 | > 133 | > 133 | > 133 |
| COc1ccccc1N1CCN(CCCNc2cc(=O)n(C)c(=O)n2C)CC1 | > 133 | > 133 | > 133 | > 133 |
| C=C1[C@H](CO)[C@@H](O)C[C@@H]1n1cnc2c(=O)[nH]c(N)nc21 | > 133 | > 133 | > 133 | > 133 |
| O=C1CCc2cc(OCCCCc3nnnn3C3CCCCC3)ccc2N1 [CILOSTAZOL] | > 133 | 16.6 | > 133 | > 133 |
